Consider eleven compounds from patent US20240174690A1, “ANNULATED 2-AMINO-3-CYANO THIOPHENES AND DERIVATIVES FOR THE TREATMENT OF CANCER” (BOEHRINGER INGELHEIM INTERNATIONAL GMBH, priority 2021, published 2024).

Values after ≈ are worked out from the molar mass of the structure shown. Like-named read-outs stand apart in the source and are kept apart here.

The test system of data set [1] is KRAS G12D-dependent Ba/F3 cells. The data set is described as follows: Ba/F3 proliferation assay, KRAS G12D. It is filed as cell-based. The conditions noted are these: Mus musculus, BaF3, 72 h, AlamarBlue. The gist of the method:
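IL-3-independent Ba/F3 lines driven by transduced KRAS G12C, G12D or G12V, with puromycin withdrawn about ten days before testing. Viability after compound treatment measured by AlamarBlue fluorescence in duplicate, and values derived by curve fitting.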
Background: Resazurin is reduced to fluorescent resorufin, in cell work by metabolically active cells.

A further data set deals with AsPC-1 cells. The data set is described as follows: AsPC-1 CTG proliferation assay (120 h) (pancreatic cancer, G12D). It is filed as cell-based. The conditions noted are these: Homo sapiens, ASPC1. The essentials: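 CellTiter-Glo luminescence, normalised to DMSO wells, measured viability after 120 h compound exposure. Cells were AsPC-1 pancreatic cancer (G12D) plated at 2000 per well in RPMI/10% FCS the day before dosing. IC50 derived by four-parameter regression.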

Another data set has as its system SAS cells. The data set is described as follows: SAS CTG proliferation assay (120 h) (HNSCC, wt amplified). It is filed as cell-based. The gist of the method: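 Viability measured by CellTiter-Glo luminescence, normalized to DMSO wells, after 120 h compound treatment of SAS cells. Cells grown in DMEM:F12 plus 10% FCS at 300 cells per well, dosed the day after seeding. Four-parameter fit gives IC50.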

Data set [2] is described as follows: Solubility measurement (DMSO solution method), McIlvaine buffer pH 4.5 or 6.8. The conditions noted are these: aqueous buffer, kinetic from dmso stock, DMSO stock diluted to 250 μM, 24 h shaking at ambient temperature. It is filed as physicochemical. The essentials:
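Filtrate concentration by LC-UV, calibrated to a known-concentration reference dissolved completely in acetonitrile/water (1:1). Samples came from 250 µM final dilutions of DMSO stock in pH 4.5 or 6.8 McIlvaine buffer, shaken 24 h at ambient temperature, then filtered.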

Data set [3] can be described thus: Caco-2 assay (permeability PappAB, PappBA, efflux ratio). Conditions: human, Caco-2, 10 μM test compound, pH 7.4; for efflux ratio at 90 min, 10 μM: efflux ratio PappBA/PappAB, read-out: Caco ER; for Papp A→B at 90 min, 10 μM: apical to basolateral. It is filed as in vitro ADME. The essentials: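 Bidirectional permeability (apical-to-basolateral and reverse) through polarized Caco-2 monolayers, BSA 0.25% on each side, 37 °C. Donor and receiver sampled at 0-90 min after 25-30 min preincubation, analysed by HPLC/MS/MS. Apparent permeabilities derived from transfer rate normalised to area and t=0 donor concentration; ER taken as PappBA over PappAB.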
(In general: Caco-2 cells form a polarised layer with tight junctions and transporters.)

Where [4] appears, read: McIlvaine buffer pH 4.5, read-out: solubility pH 4.5.
The mark [5] stands for this setting: McIlvaine buffer pH 6.8, read-out: solubility pH 6.8.

Consider `C[C@H](Oc1cc(-n2cc(C3CC3)nn2)nc(-c2noc3c2CCC[C@@]32CCCc3sc(N)c(C#N)c32)n1)[C@@H]1CCCN1C` [II-118], for which the values for the IC50 (in data set [1]; with AsPC-1 cells; in the data set on SAS cells) were 133 nM, 3170 nM and 931 nM, respectively. Moreover, the solubility (commonly how much of the substance goes into solution per volume) at 24 h in data set [2] (setting [4]) was 32 µg/mL (≈ 53.5 µM); in data set [2] (setting [5]), less than 1 µg/mL. In data set [3], the efflux ratio at 90 min, 10 μM came out at 0.7.

`C[C@H](Oc1cc(N2CCC[C@H](O)C2)nc(-c2noc3c2CCC[C@@]32CCCc3sc(N)c(C#N)c32)n1)[C@@H]1CCCN1C` [II-57]: the IC50 – broadly, the point on the concentration scale where inhibition reaches its midpoint – in data set [1] was 40 nM; in the data set with AsPC-1 cells, 1840 nM; with SAS cells, 54 nM. Also, the solubility at 24 h is 109 µg/mL (≈ 185 µM) in data set [2] (setting [4]) and 101 µg/mL (≈ 171 µM) in data set [2] (setting [5]). Further, the Papp A→B (as a rule, the apparent permeability from the apical to the basolateral side of a cell layer) at 90 min, 10 μM in data set [3] came out at 0.7 ×10⁻⁶ cm/s. For the same compound, the efflux ratio at 90 min, 10 μM in data set [3] was found to be 43.3.

Consider `C[C@H](Oc1cc(-c2ccn(-c3ccccc3)n2)nc(-c2noc3c2CCC[C@@]32CCCc3sc(N)c(C#N)c32)n1)[C@@H]1CCCN1C` [II-89], for which the figures for the IC50 (in data set [1]; with AsPC-1 cells; in the data set on SAS cells) were 199 nM, 3040 nM and 246 nM, respectively. The values for the solubility at 24 h in data set [2] (setting [4]) and in data set [2] (setting [5]) were 2 µg/mL (≈ 3.16 µM) and less than 1 µg/mL, respectively. Also, in data set [3], the Papp A→B at 90 min, 10 μM was less than 10 ×10⁻⁶ cm/s.

For `C[C@H](Oc1cc(N2CCN(C)C2=O)nc(-c2noc3c2CCC[C@@]32CCCc3sc(N)c(C#N)c32)n1)[C@@H]1CCCN1C` [II-75], the 50% inhibitory concentration (IC50) in data set [1] is 83 nM; in the data set on AsPC-1 cells, 1560 nM; with SAS cells, 31 nM. Further, the solubility at 24 h is more than 122 µg/mL in data set [2] (setting [4]) and 91 µg/mL (≈ 155 µM) in data set [2] (setting [5]). Further, the Papp A→B at 90 min, 10 μM in data set [3] is 5 ×10⁻⁶ cm/s. In addition, the efflux ratio at 90 min, 10 μM in data set [3] worked out at 5.

For `C[C@H](Oc1cc(-n2cncn2)nc(-c2noc3c2CCC[C@@]32CCCc3sc(N)c(C#N)c32)n1)[C@@H]1CCCN1C` [II-70], the figures for the IC50 (in data set [1]; with AsPC-1 cells; with SAS cells) were 47 nM, 1940 nM and 41 nM, respectively. In addition, the solubility at 24 h came to 109 µg/mL (≈ 195 µM) in data set [2] (setting [4]) and 94 µg/mL (≈ 169 µM) in data set [2] (setting [5]). Also, the Papp A→B at 90 min, 10 μM in data set [3] is 17 ×10⁻⁶ cm/s. The efflux ratio at 90 min, 10 μM in data set [3] amounted to 1.4.

`C[C@H](Oc1cc(N2CCN(C)CC2)nc(-c2noc3c2CCC[C@@]32CCCc3sc(N)c(C#N)c32)n1)[C@@H]1CCCN1C` [II-55]: the IC50 is 63 nM in data set [1], 748 nM in the data set on AsPC-1 cells and 968 nM in the data set on SAS cells. Further, the solubility at 24 h in data set [2] (setting [4]) is more than 172 µg/mL; in data set [2] (setting [5]), more than 161 µg/mL. Moreover, in data set [3], the Papp A→B at 90 min, 10 μM stood at 3.5 ×10⁻⁶ cm/s. In addition, the efflux ratio at 90 min, 10 μM in data set [3] is 5.4.

Consider `C[C@H](Oc1cc([C@@H]2CCOC2)nc(-c2noc3c2CCC[C@@]32CCCc3sc(N)c(C#N)c32)n1)[C@@H]1CCCN1C` [II-94], for which the results for the IC50 (in data set [1]; in the data set on AsPC-1 cells; in the data set on SAS cells) were 11 nM, 985 nM and 82 nM, respectively. Further, the solubility at 24 h is more than 126 µg/mL in data set [2] (setting [4]) and more than 122 µg/mL in data set [2] (setting [5]). Besides, the Papp A→B at 90 min, 10 μM in data set [3] is 13 ×10⁻⁶ cm/s. Also, the efflux ratio at 90 min, 10 μM in data set [3] worked out at 2.1.

For the compound `C[C@H](Oc1cc(-n2cc(Cn3ccnc3)nn2)nc(-c2noc3c2CCC[C@@]32CCCc3sc(N)c(C#N)c32)n1)[C@@H]1CCCN1C` [II-113], the IC50 turned out to be 106 nM in data set [1], 2010 nM in the data set on AsPC-1 cells and 381 nM with SAS cells. Besides, the solubility at 24 h in data set [2] (setting [4]) is more than 173 µg/mL; in data set [2] (setting [5]), 107 µg/mL (≈ 168 µM). In data set [3], the Papp A→B at 90 min, 10 μM came to 1.1 ×10⁻⁶ cm/s. Besides, in data set [3], the efflux ratio at 90 min, 10 μM was 30.9.

On to `C[C@H](Oc1cc(N2CC[C@H](N(C)C)C2)nc(-c2onc3c2CCC[C@@]32CCCc3sc(N)c(C#N)c32)n1)[C@@H]1CCCN1C` [I-11], for which the values for the IC50 (in data set [1]; in the data set on AsPC-1 cells; in the data set with SAS cells) were 24 nM, 565 nM and 651 nM, respectively. In addition, the solubility at 24 h in data set [2] (setting [4]) was more than 141 µg/mL; in data set [2] (setting [5]), 112 µg/mL (≈ 186 µM). For the same compound, the Papp A→B at 90 min, 10 μM in data set [3] is less than 4.1 ×10⁻⁶ cm/s.

For the compound `C[C@H](Oc1cc(-n2ccc(-c3ccccn3)n2)nc(-c2noc3c2CCC[C@@]32CCCc3sc(N)c(C#N)c32)n1)[C@@H]1CCCN1C` [II-119], the IC50 in data set [1] stood at 51 nM; with AsPC-1 cells, 1320 nM; in the data set on SAS cells, 39 nM. The solubility at 24 h in data set [2] (setting [4]) and in data set [2] (setting [5]) was less than 1 µg/mL throughout. Moreover, in data set [3], the Papp A→B at 90 min, 10 μM worked out at 1 ×10⁻⁶ cm/s. Further, in data set [3], the efflux ratio at 90 min, 10 μM stood at 1.1.

Regarding `CNC(=O)c1cn(-c2cc(O[C@@H](C)[C@@H]3CCCN3C)nc(-c3noc4c3CCC[C@@]43CCCc4sc(N)c(C#N)c43)n2)nn1` [II-122], the IC50 in data set [1] was found to be 132 nM; in the data set with AsPC-1 cells, 3350 nM; in the data set on SAS cells it was 889 nM. The figures for the solubility at 24 h in data set [2] (setting [4]) and in data set [2] (setting [5]) were 122 µg/mL (≈ 198 µM) and 98 µg/mL (≈ 159 µM), respectively. The Papp A→B at 90 min, 10 μM in data set [3] stood at 7.9 ×10⁻⁶ cm/s. Besides, the efflux ratio at 90 min, 10 μM in data set [3] was 3.2.
